Where no end group is shown, it is not given here. BAED = biotinylated photoreactive group derived from Sulfo-SBED
Columns and labels:
[1] = target: T1, intracellular proteasomes of U251 cells (Homo sapiens, UniProt P25787+P60900); assay: Intracellular proteasome CT-L activity (Proteasome-Glo) in U251 cells; type: cell-based
T1 construct: endogenous in cells; host or cells: U251, RPMI8226, SH-SY5Y
Procedure: Intracellular proteasome activity was measured using the Proteasome-Glo Assay reagent (Promega Co.) according to the manufacturer’s protocol [46].

U251 cells = assay: Cell growth inhibition assay (CellTiter-Glo); type: cell-based, human
Procedure: The U251 cell line was kindly provided by Prof. Koji Kawakami (Kyoto University). RPMI8226 and SH-SY5Y cell lines were obtained from RIKEN BRC Cell Bank (Chiba, Japan). U251 and RPMI8226 cells were grown and maintained in RPMI1640 medium (Nacalai Tesque Inc.) supplemented with 10% fetal bovine serum, 100 units/mL penicillin, and 100 μg/mL streptomycin at 37 °C in 5% CO2. SH-SY5Y cells were grown and maintained in DMEM medium (Nacalai Tesque Inc.) supplemented with 10% fetal bovine serum, 100 units/mL penicillin, and 100 μg/mL streptomycin at 37 °C in 5% CO2.
U251, RPMI8226, or SH-SY5Y cells were seeded in triplicate wells in a 96-well plate at a density of 5 × 10^3 cells/well and incubated with various concentrations (0.1–100 µM) of inhibitory compounds dissolved in DMSO for 24 or 48 h. The amount of intracellular ATP was determined by CellTiter-Glo Luminescent Cell Viability Assay (Promega Co.) according to the manufacturer’s protocol. Intracellular proteasome activity was measured using the Proteasome-Glo Assay reagent (Promega Co.) according to the manufacturer’s protocol.

human 20S proteasome = human 20S proteasome (Homo sapiens, UniProt P25787+P60900); assay: Photoaffinity labeling of 20S CP; type: binding; conditions: UV 365 nm, 2D-PAGE, LC-MS identification
Procedure: After the reaction, the product was purified by reversed-phase HPLC, and molecular weight was confirmed by mass spectrometry, as described above.
(§1) The reaction mixture was exposed to UV light (365 nm) for 30 min on ice, and proteins were separated by SDS-PAGE, transferred onto a polyvinylidene difluoride membrane (ATTO Co., Ltd., Tokyo, Japan), and probed with horseradish peroxidase-conjugated streptavidin (Cytiva, Danaher Co., Washington, DC, USA). Chemiluminescence images were obtained using an ImageQuant LAS-4000 instrument (Cytiva). Isoelectric focusing for 2D-PAGE was performed using a DiscRun AE-6541 apparatus (ATTO Co., Ltd.) according to the manufacturer’s protocol. To identify the subunits of the 20S CP by LC-MS analysis, all bands visible following CBB staining were excised, dehydrated with acetonitrile for 10 min, and centrifuged in vacuo to dryness. Dried samples were placed in trypsin solution, and hydrolysis was carried out at 37 °C for 16 h. Reaction products were recovered using 0.1% formic acid and analyzed by LC-MS-IT-TOF (Shimadzu Corporation, Kyoto, Japan) and Mascot Version 2.4 (Matrix Science, London, UK).

26S holoenzyme = 26S holoenzyme (Homo sapiens, UniProt P25787+P60900); assay: Photoaffinity labeling of 26S holoenzyme; type: binding; conditions: after UV irradiation
Procedure: as §1

Row | Photoaffinity-labeled subunits of 20S CP (human 20S proteasome) | Photoaffinity labeling of 26S holoenzyme (in words) (26S holoenzyme) | Molecule | Effect on CT-L activity of intracellular proteasomes (in words) [1] | Cell death (in words) (U251 cells)
1 | – | – | CC(C)C[C@H](NC(=O)[C@H](Cc1ccccc1)NC(=O)c1cnccn1)B(O)O [bortezomib] | did not increase CT-L activity to the same degree | induced cancer cell death
2 | α1 and β4 subunits | no detectable labeling | BAED-20S-BP1(5-12): photoreactive biotinylated peptide: 20S-BP1(5-12) with N-terminal BAED group, made with Sulfo-SBED ({BAED}-SRLRHWWR) | – | –

— publication PMC10743564, “Acceleration of Protein Degradation by 20S Proteasome-Binding Peptides Generated by In Vitro Artificial Evolution” (International Journal of Molecular Sciences, 2023)
